Laboratory results as given in patent US5481013A, “Carboxylic acid derivatives” (Ciba-Geigy Corporation, priority 1992, dated 1996).

Assays:
Format in all cases: in vivo
[1] = system: Panonychus ulmi (OP- and carb.- resistant); experiment: Activity against Panonychus ulmi (OP- and carb.- resistant); details: 336 h, 400 ppm spray on apple seedlings, evaluated after 14 days, read-out: percentage reduction in population (% activity)
Method: Apple seedlings are populated with adult females of Panonychus ulmi. After seven days, the infested plants are sprayed to drip point with an aqueous emulsion comprising 400 ppm of the test compound and grown in the greenhouse. The test is evaluated after 14 days. The percentage reduction in population (% activity) is determined by comparing the number of dead spider mites on the treated plants with those on the untreated plants. […] An activity of over 80% is shown, in particular, by compound Nos. 1.01, 2.01, 2.07, 2.08, 2.10, 2.12 to 2.16, 2.22, 2.23, 2.26, 3.01, 4.01, 4.02, 4.06, 5.01 to 5.03, 5.05, 5.06, 5.08, 5.10, 5.11, 5.15, 5.16 and 5.20 to 5.25.

Aphis craccivora = experiment: Activity against Aphis craccivora; details: 400 ppm spray on pea seedlings, 20° C., evaluated after 3 and 6 days, read-out: percentage reduction in population (% activity)
Method: Pea seedlings are infected with Aphis craccivora, subsequently sprayed with a spray mixture comprising 400 ppm of the active ingredient, and incubated at 20° C. The test is evaluated after 3 and 6 days. The percentage reduction in population (% activity) is determined by comparing the number of dead aphids on the treated plants with those on the untreated plants.

Heliothis virescens = experiment: Ovicidal/larvicidal activity on Heliothis virescens; details: 192 h, 400 ppm spray on eggs deposited on cotton, evaluated after 8 days, read-out: % reduction in population (hatching percentage of eggs and survival rate of caterpillars)
Method: Heliothis eggs which have been deposited on cotton are sprayed with a spray mixture prepared with an aqueous emulsion and comprising 400 ppm of the active ingredient. After 8 days, the hatching percentage of the eggs and the survival rate of the caterpillars are evaluated by comparing them with untreated control batches (% reduction in population).

Tetranychus urticae = experiment: Activity against Tetranychus urticae; details: 144 h, 400 ppm spray on young bean plants, mixed population, 6 days at 25° C, read-out: percentage reduction in population (% activity)
Method: Young bean plants are populated with a mixed population of Tetranychus urticae and, after 1 day, sprayed with a spray mixture prepared with an aqueous emulsion and comprising 400 ppm of the active ingredient. The plants are subsequently incubated for 6 days at 25° C and then evaluated. The percentage reduction in population (% activity) is determined by comparing the number of dead eggs, larvae and adults on the treated plants with those on the untreated ones.

Nilaparvata lugens [2] = experiment: Systemic activity against Nilaparvata lugens; details: 144 h, pots with rice plants in 400 ppm aqueous emulsion solution, larvae in stages 2 and 3, evaluated 6 days later, read-out: percentage reduction in population (% activity)
Method: (§1) Pots containing rice plants are placed into an aqueous emulsion solution comprising 400 ppm of the active ingredient. The rice plants are subsequently populated with larvae in stages 2 and 3. The test is evaluated 6 days later. The percentage reduction in population (% activity) is determined by comparing the numbers of plant hoppers on the treated plants with those on the untreated plants.

Ctenocephalides felis = experiment: Activity against Ctenocephalides felis; details: 504 h, 100 ppm in flea larvae nutrient medium, flea eggs, checked after 21 days
Method: 20 to 25 flea eggs are placed into a horizontally positioned 50 ml tissue culture flask into which 15 g of flea larvae nutrient medium comprising 100 ppm of the active ingredient to be tested have previously been introduced. The test flasks are incubated in an incubator at 26° to 27° C. and an atmospheric humidity of 60-70%. After 21 days, the flasks are checked for the presence of adult fleas, unhatched pupae and larvae.

Bemisia tabaci = experiment: Activity against Bemisia tabaci; details: 336 h, 400 ppm spray on dwarf bean plants with nymphs, evaluated 14 days after application, read-out: activity (hatching percentages vs untreated control)
Method: Dwarf bean plants are placed into gauze cages and populated with adult Bemisia tabaci specimens (white fly). After oviposition has taken place, all adults are removed and, 10 days later, the plants with the nymphs located thereon are treated with a spray mixture of the active ingredients to be tested (concentration 400 ppm), which has been prepared with an aqueous emulsion. The test is evaluated for hatching percentages 14 days after the active ingredient has been applied by comparison with the untreated control batches. […] An activity of over 80% is shown, in particular, by compound Nos. 1.01, 2.01 to 2.08, 2.10 to 2.16, 2.22, 2.23, 3.01, 4.01, 4.02, 4.05, 4.06, 5.02, 5.03, 5.06 to 5.08, 5.10, 5.11, 5.20, 5.21 and 6.09.

Nilaparvata lugens [3] = experiment: Activity against Nilaparvata lugens (spray on rice plants); details: 504 h, 400 ppm spray on rice plants, larvae in stages 2 and 3, evaluated after 21 days, read-out: percentage reduction in population (% activity)
Method: Rice plants are treated with a spray mixture prepared with an aqueous emulsion and comprising 400 ppm of the active ingredient. After the spray coating has dried on, the rice plants are populated with plant hopper larvae in stages 2 and 3. The test is evaluated after 21 days. The percentage reduction in population (% activity) is determined by comparing the number of surviving plant hoppers on the treated plants with the number of plant hoppers on the untreated plants. […] An activity of over 80% is shown, in particular, by compound Nos. 1.01, 2.01 to 2.03, 2.07, 2.08, 2.10 to 2.16, 2.20, 2.22, 2.23, 2.26, 3.01, 4.01 to 4.06, 4.20, 5.01 to 5.06, 5.08, 5.10 to 5.12, 5.15, 5.16 and 5.20 to 5.25.

[4] = system: Heliothis virescens caterpillars; experiment: Activity against Heliothis virescens caterpillars; details: 144 h, 400 ppm spray on young soybean plants, first larval stage, evaluated after 6 days, read-out: percentage reduction in population or in feeding damage (% activity)
Method: (§2) Young soybean plants are sprayed with a spray mixture prepared with an aqueous emulsion and comprising 400 ppm of the active ingredient. After the spray coating has dried on, the soybean plants are populated with 10 Heliothis virescens in the first larval stage and placed into a plastic container. The test is evaluated after 6 days. The percentage reduction in population, or the percentage reduction in feeding damage (% activity), is determined by comparing the number of dead caterpillars and the feeding damage on the treated plants with those on the untreated plants.

Nephotettix cincticeps [5] = experiment: Activity against Nephotettix cincticeps (spray on rice plants); details: 504 h, 400 ppm spray on rice plants, larvae in stages 2 and 3, evaluated 21 days later, read-out: percentage reduction in population (% activity)
Method: Rice plants are treated with a spray mixture prepared with an aqueous emulsion and comprising 400 ppm of the active ingredient. After the spray coating has dried on, the rice plants are populated with leaf hopper larvae in stages 2 and 3. The test is evaluated 21 days later. The percentage reduction in population (% activity) is determined by comparing the number of surviving leaf hoppers on the treated plants with those on the untreated plants.

Dermanyssus gallinae = experiment: Activity against Dermanyssus gallinae; details: 72 h, 10 ppm solution, mites in different development stages, after 3 days
Method: 2 to 3 ml of a solution comprising 10 ppm of active ingredient and approximately 200 mites in different development stages are placed into a glass container which is open at the top. The container is then sealed with a cottonwool ball, shaken for 10 minutes until the mites are wetted completely, and then briefly turned over so that the remaining test solution can be absorbed by the cottonwool. After 3 days, the mortality of the mites is determined by counting the dead individuals; it is given as a percentage.

Nephotettix cincticeps [6] = experiment: Systemic activity against Nephotettix cincticeps; details: 144 h, pots with rice plants in 400 ppm aqueous emulsion solution, larvae in stages 2 and 3, evaluated after 6 days, read-out: percentage reduction in population (% activity)
Method: as §1, with “evaluated after” for “evaluated”, “6 days.” for “6 days later.”, “the number” for “the numbers”, “of leaf” for “of plant”

adult Anthonomus grandis = experiment: Activity against adult Anthonomus grandis; details: 72 h, 400 ppm spray on young cotton plants, adults, evaluated after 3 days, read-out: percentage reduction in population or in feeding damage (% activity)
Method: as §2, with “cotton” for “soybean”, “adult Anthonomus grandis” for “Heliothis virescens in the first larval stage”, “3” for “6”, “beetles” for “caterpillars”

[7] = system: Crocidolomia binotalis caterpillars; experiment: Activity against Crocidolomia binotalis caterpillars; details: Brassica oleracea, 72 h; 400 ppm spray on young cabbage plants, third larval stage, evaluated after 3 days; read-out: percentage reduction in population or in feeding damage (% activity)
Method: as §2, with “cabbage” for “soybean”, “infested” for “populated”, “Crocidolomia binotalis” for “Heliothis virescens”, “third” for “first”, “3” for “6”

O=C(CCCC=C(F)F)OCCOc1ccc(OC(=O)c2ccccc2)cc1 [Compound 2.22]
> 80%: activity at 400 ppm [1] | activity at 400 ppm (Aphis craccivora) | pest or weed control at 400 ppm (Heliothis virescens) | activity at 400 ppm (Tetranychus urticae) | activity at 400 ppm (Nilaparvata lugens [2]) | pest or weed control at 100 ppm (Ctenocephalides felis) | pest or weed control at 400 ppm (Bemisia tabaci) | activity at 400 ppm (Nilaparvata lugens [3]) | activity at 400 ppm [4]

O=C(CCCC=C(F)F)OCCOc1ccc(OC(=O)Oc2ccccc2)cc1 [Compound 2.23]
> 80%: activity at 400 ppm [1] | activity at 400 ppm (Aphis craccivora) | pest or weed control at 400 ppm (Heliothis virescens) | activity at 400 ppm (Nephotettix cincticeps [5]) | activity at 400 ppm (Tetranychus urticae) | activity at 400 ppm (Nilaparvata lugens [2]) | pest or weed control at 100 ppm (Ctenocephalides felis) | pest or weed control at 400 ppm (Bemisia tabaci) | activity at 400 ppm (Nilaparvata lugens [3]) | activity at 400 ppm [4]

O=C(CCCCCCCC=C(F)F)OCCOc1ccc(Oc2ccccc2)cc1 [Compound 4.01]
> 80%: mortality at 10 ppm (Dermanyssus gallinae) | activity at 400 ppm [1] | activity at 400 ppm (Nephotettix cincticeps [5]) | activity at 400 ppm (Nephotettix cincticeps [6]) | pest or weed control at 400 ppm (Bemisia tabaci) | activity at 400 ppm [4]

O=C(CCCCCCCC=C(F)F)OCCOc1ccc(Sc2ccccc2)cc1 [Compound 4.02]
> 80%: mortality at 10 ppm (Dermanyssus gallinae) | activity at 400 ppm [1] | activity at 400 ppm (Nephotettix cincticeps [5]) | activity at 400 ppm (Nephotettix cincticeps [6]) | pest or weed control at 400 ppm (Bemisia tabaci) | activity at 400 ppm [4]

CC(COC(=O)CCCCCCCC=C(F)F)Oc1ccc(Oc2ccccc2)cc1 (centres unmarked) [Compound 4.06]
> 80%: mortality at 10 ppm (Dermanyssus gallinae) | activity at 400 ppm [1] | activity at 400 ppm (Nephotettix cincticeps [5]) | activity at 400 ppm (Nephotettix cincticeps [6]) | pest or weed control at 400 ppm (Bemisia tabaci) | activity at 400 ppm [4]

O=C(CCCCCCCCCC=C(F)F)OCCOc1ccc(Oc2ccccc2)cc1 [Compound 5.01]
> 80%: activity at 400 ppm (adult Anthonomus grandis) | activity at 400 ppm [7]

O=C(CCCCCCCCCC=C(F)F)OCCOc1ccc(Sc2ccccc2)cc1 [Compound 5.02]
> 80%: activity at 400 ppm (adult Anthonomus grandis) | activity at 400 ppm [7] | pest or weed control at 400 ppm (Bemisia tabaci)

O=C(CCCCCCCCCC=C(F)F)OCCOc1ccc(OCc2ccccc2)cc1 [Compound 5.05]
> 80%: activity at 400 ppm (adult Anthonomus grandis) | activity at 400 ppm [1] | activity at 400 ppm (Aphis craccivora) | activity at 400 ppm [7] | activity at 400 ppm (Nephotettix cincticeps [5])

O=C(CCCCCCCCCC=C(F)F)OCCOc1ccc(OCc2cccc(F)c2)cc1 [Compound 5.24]
> 80%: activity at 400 ppm (Nephotettix cincticeps [5]) | activity at 400 ppm (Nephotettix cincticeps [6]) | activity at 400 ppm [4]
